Measured values as given in US11104965B2, “Methods for the diagnosis and treatment of inflammatory bowel disease” (priority 2013, dated 2021).

Legend:
[1] = test system: GALT foci of II10−/− mice; test: Number of GALT foci in II10-/- mice associated with A. parvulum, SPF conditions; format: in vivo, mouse; settings: Atopobium-associated II10-/- mice under SPF conditions; FIG. 4C
Experimental: (§1) Statistical significance was assessed using a Kruskal-Wallis test with a Dunn's post hoc test.
(§2) To test the causative role of H2S-producing microbes in colitis, we assessed whether an H2S scavenger (bismuth) could alleviate Atopobium-induced colitis in II10^−/− mice. […] It should be noted that the intestines of IBD patients also display a similar increased number of lymphoid follicles^15. […] Increased GALT foci in Atopobium-associated mice could lead to an aberrant expression of lymphoid adhesion molecules and unwanted T cell activation towards commensal microbes. To assess the role of these commensal microbes in colitis development, germ-free mice were mono-associated with A. parvulum and kept under gnotobiotic conditions.
(§3) To investigate involvement of complex biota and H2S in the development of colitis, we performed two subsequent experiments using 129/SvEv II-10^−/− mice. […] Mice were euthanized after 6 weeks of mono-association. […] Mice were fed with this diet starting 1 week before the colonization with A. parvulum. […] Mice were euthanized after 6 weeks of weekly infection with A. parvulum. […]
(§4) All animal protocols were approved by the Institutional Animal Care and Use Committee of the University of North Carolina at Chapel Hill. […] Histological images were acquired using a DP71 camera and DP Controller 3.1.1.276 (Olympus), and intestinal inflammation was scored as previously described^12. […]

[2] = test system: gut microbiota of II10−/− mice; test: Gut microbiota composition of SPF and Atopobium-associated II10-/- mice, treated or not with bismuth (PCA, Table 6); format: in vivo, mouse
Text: To assess the role of these commensal microbes in colitis development, germ-free mice were mono-associated with A. parvulum and kept under gnotobiotic conditions. […] FIG. 12B). […] GF+bismuth (III) subsalicylate (n=10); 3: […] A. parvulum+bismuth (III) subsalicylate (n=11). Mice were euthanized after 6 weeks of mono-association. […] Mice were fed with this diet starting 1 week before the colonization with A. parvulum. […] SPF+bismuth (III) subsalicylate (n=8); 3: […] A. parvulum+bismuth (III) subsalicylate (n=8). Mice were euthanized after 6 weeks of weekly infection with A. parvulum. […] Mice were fed with this diet starting 1 week before the colonization with A. parvulum.

[3] = test system: GALT foci of II10−/− mice; test: Number of GALT foci in II10-/- mice mono-associated with A. parvulum, gnotobiotic conditions; format: in vivo, mouse; settings: germ-free II10-/- mice mono-associated with A. parvulum, FIG. 4C
Experimental: as §1, §2, §3, §4

[4] = test system: Atopobium-induced colitis in II10−/− mice; test: Atopobium-induced colitis in II10-/- mice under SPF conditions, treated or not with bismuth (colonoscopy, blinded histological inflammation score); format: in vivo, mouse; settings: A. parvulum-associated II10-/- mice, 6 weeks
Text: as §2
Colonic mucosal lavages and/or mucosal biopsies were collected from 157 pediatric subjects (84 Crohn's Disease, 20 Ulcerative Colitis, and 53 controls). […] Reads were quality filtered and QIIME ^23 was used to assign reads into operational taxonomic units (OTUs) against the Greengenes reference set. […] The generated raw data was processed and analyzed by MaxQuant against the decoy Uniport-human database with the protein-group file imported into Persus for statistical analysis. […] The transcript levels of TST, SQRDL and COX4-1 were quantified by RT-qPCR. […] Mouse colonoscopies were performed and histological inflammation was blindly scored as previously described ^25. Mice mucosal cytokines (Cxcl1, II12p40, II1β and II17a) were quantified by RT-qPCR. […]

A. parvulum = A. parvulum colonization level in stool of mono-associated II10-/- mice by real-time qPCR; format: in vivo, Atopobium parvulum; settings: 6 weeks, P=0.0001, FIG. 12B
Experimental: Statistical significance was assessed using a Mann-Whitney U-test.
as §2
To investigate involvement of complex biota and H2S in the development of colitis, we performed two subsequent experiments using 129/SvEv II-10^−/− mice. […] Mice were euthanized after 6 weeks of mono-association. […] Mice were fed with this diet starting 1 week before the colonization with A. parvulum. […] Mice were euthanized after 6 weeks of weekly infection with A. parvulum. […] Mice were fed with this diet starting 1 week before the colonization with A. parvulum.

Q: With `O=C([O-])c1ccccc1[O-].[Bi+3].[OH-]` [bismuth, Bismuth (III) subsalicylate] as the molecule, how does the “GALT formation (number of GALT foci)” value [1] read?
A: did not prevent GALT formation

Q: What about the “microbiota of Atopobium-associated mice, abundance of butyrate-producers” value ([2]; Atopobium-associated II10-/- mice, SPF) of the same molecule?
A: restores the microbiota of these mice toward a healthier community

Q: What about the microbiota composition ([2]; SPF and Atopobium-associated II10-/- mice, Table 6) of the same molecule?
A: altered the microbiota composition

Q: And the GALT neogenesis [3]?
A: prevented GALT neogenesis

Q: And the inflammatory score ([4]; bismuth 7 g/kg in chow, P=0.007, FIG. 4B)?
A: decrease inflammatory score

Q: And the “colitis as evidenced by colonoscopy visualization” value ([4]; bismuth (III) subsalicylate 7 g/kg in chow, FIG. 4A)?
A: prevented colitis

Q: And the “A. parvulum colonization level (16S rDNA gene copies per mg of stool)” value (A. parvulum)?
A: reduced colonization level
